Assay results from PMC4266362 (Journal of Medicinal Chemistry, 2014).

Columns and labels:
glucagon receptor (GR) = glucagon receptor (GR) (Homo sapiens, UniProt P47871); experiment: duplexed calcium mobilization assay, glucagon receptor; type: cell-based; conditions: EC20 of glucagon
[1] = biological target: melanocortin 4 receptor (MC4R) (Homo sapiens, UniProt P32245); experiment: counter-screen against melanocortin 4 receptor; type: cell-based
human GLP-1R = human GLP-1R (Homo sapiens, UniProt P43220); experiment: calcium mobilization PAM assay in human GLP-1R 9-3-H cells; type: cell-based
primary mouse islets = experiment: glucose-stimulated insulin secretion, static islet incubation; type: cell-based
[2] = in vivo rat pharmacokinetics; conditions: male, Sprague-Dawley, plasma
[3] = in vivo rat brain distribution; conditions: Sprague-Dawley, intraperitoneal, 10 mg/kg
rats = experiment: spontaneous locomotor activity; type: in vivo; conditions: rat, 10–30 mg/kg i.p.
[4] = tested on: 68 GPCRs, ion channels, and transporters; experiment: Eurofin radioligand binding panel; conditions: 10 μM, 68 targets
[5] = liver microsome predicted hepatic clearance, rat; type: in vitro ADME; conditions: well-stirred model

glucagon receptor (GR), sequence (P47871 26-477, species assumed): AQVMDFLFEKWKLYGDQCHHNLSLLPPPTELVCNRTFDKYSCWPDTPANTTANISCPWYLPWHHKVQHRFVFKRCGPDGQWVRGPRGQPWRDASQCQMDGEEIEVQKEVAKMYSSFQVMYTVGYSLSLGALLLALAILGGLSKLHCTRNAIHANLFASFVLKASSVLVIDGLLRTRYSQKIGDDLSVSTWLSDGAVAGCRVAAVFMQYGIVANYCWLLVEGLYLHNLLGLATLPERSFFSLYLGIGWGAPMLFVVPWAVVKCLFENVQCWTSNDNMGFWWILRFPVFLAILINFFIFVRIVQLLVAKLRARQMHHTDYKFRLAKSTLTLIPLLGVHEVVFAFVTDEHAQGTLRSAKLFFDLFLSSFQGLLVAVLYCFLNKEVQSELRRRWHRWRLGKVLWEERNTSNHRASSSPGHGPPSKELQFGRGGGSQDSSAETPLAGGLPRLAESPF
human GLP-1R, sequence (P43220 24-463): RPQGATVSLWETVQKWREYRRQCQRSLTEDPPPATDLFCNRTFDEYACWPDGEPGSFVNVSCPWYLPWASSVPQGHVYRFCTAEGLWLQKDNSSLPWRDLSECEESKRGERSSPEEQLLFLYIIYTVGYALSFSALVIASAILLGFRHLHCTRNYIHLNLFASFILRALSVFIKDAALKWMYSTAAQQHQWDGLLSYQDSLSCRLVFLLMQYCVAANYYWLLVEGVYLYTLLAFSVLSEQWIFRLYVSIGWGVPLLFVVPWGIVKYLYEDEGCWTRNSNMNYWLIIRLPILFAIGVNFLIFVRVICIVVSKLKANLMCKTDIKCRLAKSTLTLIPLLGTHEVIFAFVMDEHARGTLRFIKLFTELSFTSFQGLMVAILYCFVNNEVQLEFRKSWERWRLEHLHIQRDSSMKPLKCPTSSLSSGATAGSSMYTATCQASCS
melanocortin 4 receptor (MC4R), sequence (P32245 whole entry, species assumed): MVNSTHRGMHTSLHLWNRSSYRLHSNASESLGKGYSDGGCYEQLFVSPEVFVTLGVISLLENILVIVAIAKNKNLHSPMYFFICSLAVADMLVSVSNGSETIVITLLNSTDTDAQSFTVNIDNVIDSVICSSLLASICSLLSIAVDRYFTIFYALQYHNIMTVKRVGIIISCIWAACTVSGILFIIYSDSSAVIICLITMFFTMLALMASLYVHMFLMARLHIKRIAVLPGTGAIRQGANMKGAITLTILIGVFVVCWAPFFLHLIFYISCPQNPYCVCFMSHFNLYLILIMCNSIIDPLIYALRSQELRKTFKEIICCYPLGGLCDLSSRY

SMILES	activity at GR (glucagon receptor (GR))	activity at MC4R [1]	GLP-1R PAM activity / mode (pure PAM or ago-PAM) (human GLP-1R; calcium mobilization)	effect on insulin secretion (primary mouse islets; 30 μM, in presence of 10 nM 1, low (5.6 mM) and high (11 mM) glucose, 60 min)	half-life ([2]; intravenous, 1 mg/kg)	Tmax [3]	effect on spontaneous locomotor activity (rats)	highest inhibition in radioligand binding panel [4]	calcium response in the absence of GLP-1 (human GLP-1R; compound alone)	potentiation of glucose-stimulated insulin secretion (primary mouse islets; primary mouse islets, in the presence of 2)	rat CLHEP [5]	clearance [2]
CCN1CCCC1CNC(=O)c1cn(C2CCCC2)c(=O)c2c1c1ccccc1n2C (stereo not shown) [compound 8]	inactive	inactive										
CC(C)N1CCC[C@H]1CNC(=O)c1cn(C2CCCC2)c(=O)c2c1c1ccccc1n2C [(S)-9b, (S)-2-Cyclopentyl-N-((1-isopropylpyrrolidin-2-yl)methyl)-9-methyl-1-oxo-2,9-dihydro-1H-pyrido[3,4-b]indole-4-carboxamide]			ago-PAMs	significantly increased insulin secretion	~60 min	30 min	no effect on locomotion or sedative effects	≤ 50%				
CCN1CCC[C@H]1CNC(=O)c1cn(C2CCCC2)c(=O)c2c1c1ccccc1n2C [(S)-8]	no effect								no calcium response	~1.5 fold	69 mL/min/kg	92 mL/min/kg
